According to patent US10989719B2, “Methods for treating spinocerebellar ataxia type I using RPA1” (National University Corporation Tokyo Medical and Dental …, priority 2013, dated 2021):
Entries after “also recorded” stand apart in the source; their conditions may differ.

Tested on: OK6>SCA1 flies
Test: Chemical therapy on hSCA1 Drosophila: lifespan on medium supplemented with CHK1 inhibitor
Type: in vivo
Conditions: adult flies
Protocol: FIG. 29 is a graph showing the results of a lifespan analysis of OK6>SCA1 flies fed on media supplemented with a CHK1 inhibitor (CHIR-124). The statistical analysis of the average values of the lifespan was performed by log-rank test.
A CHK1-specific inhibitor, CHIR-124 (manufactured by AXON MEDCHEM), was dissolved at 5 mg/mL in 1N hydrogen chloride and diluted to multiple concentrations with 0.05 N solution. Note that the medium used here was a 1:1 mixture of Instant Drosophila medium D7670 (manufactured by Sigma Aldrich) and Formula 4-24 Instant Drosophila medium (manufactured by Calolina). As a control, a medium to which an equal amount of 0.05 N hydrogen chloride solution was added was also prepared.
In this respect, whether or not the inhibition of a signal mediated by CHK1 mitigates the lifespan shortening in the SCA1 fly model was examined. Specifically, a CHK1-specific inhibitor (CHIR-124) was used. This inhibitor was added to feed (corn-meal medium) at multiple concentrations, and adult flies were fed on the feed. As a result, the lifespan of OK6>SCA1 was improved at 0.00016 mg/mL and 0.02 mg/mL (see FIG. 29). In addition, the improvement effect was more remarkable in an example where the inhibitor was given at a higher concentration. The lifespan of the flies treated with CHIR-124 at 0.02 mg/mL was elongated by 35% (see FIG. 29).

SMILES: O=c1[nH]c2ccc(Cl)cc2c(N[C@@H]2CN3CCC2CC3)c1-c1nc2ccccc2[nH]1 [CHIR-124, 4-[((3S)-1-azabicyclo[2.2.2]oct-3-yl)amino]-3-(1H-benzimidazol-2-yl)-6-chloroquinolin-2(1H)-one]
- lifespan of OK6>SCA1 (0.00016 mg/mL in feed): improved
- lifespan elongation (0.02 mg/mL in feed): 35%
- lifespan of OK6>SCA1 (0.02 mg/mL in feed): ameliorated the lifespan-shortening; also recorded: improved
